From patent US9260417B2, “Therapeutic methods and compositions involving allosteric kinase inhibition” (AMITECH THERAPEUTIC SOLUTIONS, INC., priority 2010, dated 2016)

Assays:
[1] = biological target: BRAF (Homo sapiens (Human), UniProt P15056); test: In vitro kinase panel (SelectScreen); type: biochemical
Procedure: (§2) In vitro kinase screen and competitive binding assay. […] 11-point Kd curves were determined for hits identified during the initial screen.

[2] = biological target: CSF1R (Homo sapiens (Human), UniProt P07333); test: In vitro kinase panel (SelectScreen); type: biochemical
Procedure: as §2

[3] = biological target: EGFR (Homo sapiens (Human), UniProt P00533); test: In vitro kinase panel (SelectScreen); type: biochemical
Procedure: as §2

[4] = biological target: EGFR L858R (Homo sapiens (Human), UniProt P00533, L858R); test: In vitro kinase panel (SelectScreen); type: biochemical
Procedure: as §2

[5] = biological target: EGFR L861Q (Homo sapiens (Human), UniProt P00533, L861Q); test: In vitro kinase panel (SelectScreen); type: biochemical
Procedure: as §2

[6] = biological target: KDR (VEGFR2) (Homo sapiens (Human), UniProt P35968); test: In vitro kinase panel (SelectScreen); type: biochemical
Procedure: as §2

[7] = biological target: FLT3 (Homo sapiens (Human), UniProt P36888); test: KINOMEscan competitive binding assay
Procedure: (§3) In vitro kinase screen and competitive binding assay. […] For the competitive binding assay, test compounds were screened at 10 μM against 70 diverse kinase targets for competitive binding using the KINOMEscan™ technology (Ambit Biosciences) (Karaman, et al. (2008) Nature biotechnology 26:127-132). 11-point Kd curves were determined for hits identified during the initial screen.

[8] = biological target: KIT (Homo sapiens (Human), UniProt P10721); test: KINOMEscan competitive binding assay
Procedure: as §3

[9] = biological target: PDGFRA (Homo sapiens (Human), UniProt P16234); test: KINOMEscan competitive binding assay
Procedure: as §3

[10] = biological target: PDGFRB (Homo sapiens (Human), UniProt P09619); test: KINOMEscan competitive binding assay
Procedure: as §3

[11] = test system: VSMCs; test: XTT viability assay in VSMCs; type: cell-based, human; conditions: 72 h, full growth medium containing 10% FBS; read-out: EC50, VSMC viability
Procedure: FIG. 1A-1F illustrate molecular modeling and assay screening to compounds for dual targeting of PDGFRβ and RAF. (FIG. 1A) Molecular modeling of the amino-triazole based small molecules in PDGFRβ and RAF, respectively. […] A homology model of PDGFRβ was created with a structurally-related family member (VEGFR2, PDB 1y6b). […] To autophosphorylation, immunoblots were carried out with a phospho-tyrosine antibody. Membranes were stripped and reprobed for total PDGFRβ levels. […] (FIG. 1D) Structure activity relationships of the amino-triazole based small molecules comparing both PDGFRβ and B-RAF. […] Curves represent the average of 3 separate experiments, error bars represent ±SEM.
For XTT assays, cells were grown in 96-well plates overnight and all assays were conducted in growth medium will full serum and additives. […] Dose-response curves were plotted using GraphPad Prism software and EC50s were calculated using this program.

[12] = biological target: B-RAF/C-RAF heterodimerization (Homo sapiens (Human), UniProt P15056); test: B-RAF/C-RAF heterodimerization in HUVECs (immunoprecipitation/Western); type: cell-based; conditions: ECs stimulated with bFGF or VEGF
[13] = test system: HUVECs co-cultured with hTERT-human hepatic stellate cells; test: Stellate cell/endothelial cell co-culture tube formation assay; type: cell-based; conditions: […] 6, […] 3, 1.0 μM imatinib, 0.5 μM GW 5074
Procedure: One representative panel from 3 independent experiments is shown. […] Scale bar=200 μm.
The stellate cells were washed in PBS and mixed with early passage HUVECs (p<5) at a ratio of 1:4 and mixed into a 3.75 mg/ml Type 1 Rat tail collagen matrix (BD Biosciences) in M-199 media. 30 μl of this mixture was seeded onto each well of a half-area 96 well plate (Corning). The collagen was allowed to polymerize for 30 min at 37° C. and […] of complete EBM-2 media was added to each well. Various inhibitors were serially diluted in DMSO and subsequently added to duplicate wells 6 h post cell seeding. […] The endothelial tubes and the stellate cells were imaged at 48 h with a 10× objective on a confocal microscope. Images were collected across five fields per well.
Stellate cell/endothelial cell tube formation assay and mouse matrigel model. This assay was performed as described in the SI Methods. The stellate cells were a gift from Dr. David Brenner and previously described (Schnabl, et al. (2002) Laboratory investigation; a journal of technical methods and pathology 82:323-333). […] The mouse matrigel model was performed as previously described (Eliceiri, et al. (1999) Molecular cell 4:915-924 5) and further details of immunohistochemistry and animal dosing can be found herein.
To validate the findings of Example 10, a co-culture angiogenesis assay was utilized to evaluate similar combinations of PDGFR and RAF inhibitors. In the assay, HUVECs are mixed with hepatic stellate cells (a pericyte found in the perisinusoidal space of the liver) in a 3D-collagen gel. The co-culture produced endothelial tubes with pericyte contacts (from the stellate cells) that can be imaged and quantified as shown in FIGS. 4B and C.

[14] = test system: CHL-1; test: Tumor cell viability; type: cell-based; conditions: Melanoma CHL-1
Procedure: (§1) For XTT assays, cells were grown in 96-well plates overnight and all assays were conducted in growth medium will full serum and additives. Compounds were serially diluted in DMSO and then further diluted into the medium to give the appropriate concentration while minimizing precipitation associated with serial diluting in medium alone Inhibitors were added for 72 h and cell viability was quantified at 450 nm after the addition of 1 mg/ml XTT solution (Sigma-Aldrich) in phenol-red free DMEM medium containing […] (Sigma-Aldrich). Dose-response curves were plotted using GraphPad Prism software and EC50s were calculated using this program.

[15] = test system: HT29; test: Tumor cell viability; type: cell-based; conditions: Colon HT29, B-RAF V600E
Procedure: as §1

[16] = test system: MCF7; test: Tumor cell viability; type: cell-based; conditions: Breast MCF7, PI3K
Procedure: as §1

[17] = test system: R40P; test: Tumor cell viability; type: cell-based; conditions: Pancreatic (mouse spontaneous model) R40P, K-Ras
Procedure: as §1

[18] = test system: SK-MEL-28; test: Tumor cell viability; type: cell-based; conditions: Melanoma SK-MEL-28, B-RAF V600E
Procedure: as §1

[19] = test system: SK-MEL-2; test: Tumor cell viability; type: cell-based; conditions: Melanoma SK-MEL-2, N-Ras
Procedure: as §1

[20] = biological target: CRAF S338 (Mus musculus (Mouse), UniProt Q99N57); test: CRAF S338 phosphorylation in R40P cells (Western); type: cell-based; conditions: 12 h, sorafenib 5 μM, compound 6 5, 2.5, 1.25 μM
Procedure: R40P cells are derived from a spontaneous pancreatic adenocarcinoma mouse model which expresses K-ras^G12D while p16/Ink4a/ARF is lost. […] At this time the cells were lysed and protein levels were quantified by BCA analysis. The lysates were then loaded on an SDS-PAGE gel and transferred to nitrocellulose for Western blotting. Immunoblotting was performed with the following antibodies: pMEK1/2 S217/S221 (Cell Signaling), pCRAF S338 (Cell Signaling), and total CRAF (BD Biosciences). Chemilluminescence was used for detection on film.

Sequence of FLT3 (P36888 27-993): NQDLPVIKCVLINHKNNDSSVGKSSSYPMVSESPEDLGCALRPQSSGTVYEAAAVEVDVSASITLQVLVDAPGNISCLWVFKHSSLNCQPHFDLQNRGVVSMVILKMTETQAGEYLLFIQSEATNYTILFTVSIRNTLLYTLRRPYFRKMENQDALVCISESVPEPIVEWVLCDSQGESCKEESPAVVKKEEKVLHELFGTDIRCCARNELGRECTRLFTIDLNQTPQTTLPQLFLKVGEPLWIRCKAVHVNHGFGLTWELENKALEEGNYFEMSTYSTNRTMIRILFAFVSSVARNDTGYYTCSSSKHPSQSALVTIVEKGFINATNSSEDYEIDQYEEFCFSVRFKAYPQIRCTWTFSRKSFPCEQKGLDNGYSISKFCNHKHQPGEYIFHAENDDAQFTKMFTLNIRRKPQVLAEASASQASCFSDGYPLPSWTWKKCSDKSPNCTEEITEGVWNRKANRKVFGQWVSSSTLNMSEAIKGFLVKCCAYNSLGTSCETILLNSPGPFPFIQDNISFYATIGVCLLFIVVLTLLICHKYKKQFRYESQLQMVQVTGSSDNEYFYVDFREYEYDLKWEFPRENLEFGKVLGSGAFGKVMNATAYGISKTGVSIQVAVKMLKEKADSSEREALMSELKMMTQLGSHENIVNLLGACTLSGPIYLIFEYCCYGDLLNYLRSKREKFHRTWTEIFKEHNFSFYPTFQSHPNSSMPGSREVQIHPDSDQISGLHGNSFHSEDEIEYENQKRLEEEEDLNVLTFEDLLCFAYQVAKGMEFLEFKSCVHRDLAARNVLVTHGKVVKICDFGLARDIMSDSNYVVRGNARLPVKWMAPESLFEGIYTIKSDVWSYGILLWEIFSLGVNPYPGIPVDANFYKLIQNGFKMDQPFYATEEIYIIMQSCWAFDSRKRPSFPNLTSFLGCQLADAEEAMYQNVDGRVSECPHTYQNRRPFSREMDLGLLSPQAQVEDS
Sequence of PDGFRA (P16234 24-1089): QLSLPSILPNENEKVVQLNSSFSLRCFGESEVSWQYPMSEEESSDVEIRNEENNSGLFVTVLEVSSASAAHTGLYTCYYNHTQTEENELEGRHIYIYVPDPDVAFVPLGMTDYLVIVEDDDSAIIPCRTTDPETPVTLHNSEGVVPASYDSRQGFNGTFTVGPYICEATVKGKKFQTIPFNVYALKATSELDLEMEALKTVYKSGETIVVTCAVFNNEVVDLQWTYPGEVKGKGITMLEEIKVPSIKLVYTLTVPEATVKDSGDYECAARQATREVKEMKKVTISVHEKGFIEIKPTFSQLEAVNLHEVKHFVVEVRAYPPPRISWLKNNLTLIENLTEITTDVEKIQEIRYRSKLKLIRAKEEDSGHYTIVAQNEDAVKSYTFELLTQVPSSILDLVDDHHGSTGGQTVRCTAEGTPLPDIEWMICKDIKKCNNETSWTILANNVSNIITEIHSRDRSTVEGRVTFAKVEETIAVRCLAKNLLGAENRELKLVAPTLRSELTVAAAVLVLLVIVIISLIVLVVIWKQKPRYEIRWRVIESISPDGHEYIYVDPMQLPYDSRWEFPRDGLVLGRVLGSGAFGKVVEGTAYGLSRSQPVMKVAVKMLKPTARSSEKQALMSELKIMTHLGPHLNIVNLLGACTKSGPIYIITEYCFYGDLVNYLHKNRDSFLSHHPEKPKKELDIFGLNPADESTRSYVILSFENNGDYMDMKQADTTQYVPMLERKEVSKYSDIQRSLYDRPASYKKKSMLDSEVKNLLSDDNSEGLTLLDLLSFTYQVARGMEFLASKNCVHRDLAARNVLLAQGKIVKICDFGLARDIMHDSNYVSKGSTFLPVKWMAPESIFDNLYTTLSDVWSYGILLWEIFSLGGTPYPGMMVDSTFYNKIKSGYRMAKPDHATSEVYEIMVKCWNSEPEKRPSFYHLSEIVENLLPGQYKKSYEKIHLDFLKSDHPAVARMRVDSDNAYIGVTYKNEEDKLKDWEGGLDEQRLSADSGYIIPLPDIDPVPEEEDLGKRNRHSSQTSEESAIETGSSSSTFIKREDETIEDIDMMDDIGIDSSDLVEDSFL
Sequence of EGFR (P00533 25-1210): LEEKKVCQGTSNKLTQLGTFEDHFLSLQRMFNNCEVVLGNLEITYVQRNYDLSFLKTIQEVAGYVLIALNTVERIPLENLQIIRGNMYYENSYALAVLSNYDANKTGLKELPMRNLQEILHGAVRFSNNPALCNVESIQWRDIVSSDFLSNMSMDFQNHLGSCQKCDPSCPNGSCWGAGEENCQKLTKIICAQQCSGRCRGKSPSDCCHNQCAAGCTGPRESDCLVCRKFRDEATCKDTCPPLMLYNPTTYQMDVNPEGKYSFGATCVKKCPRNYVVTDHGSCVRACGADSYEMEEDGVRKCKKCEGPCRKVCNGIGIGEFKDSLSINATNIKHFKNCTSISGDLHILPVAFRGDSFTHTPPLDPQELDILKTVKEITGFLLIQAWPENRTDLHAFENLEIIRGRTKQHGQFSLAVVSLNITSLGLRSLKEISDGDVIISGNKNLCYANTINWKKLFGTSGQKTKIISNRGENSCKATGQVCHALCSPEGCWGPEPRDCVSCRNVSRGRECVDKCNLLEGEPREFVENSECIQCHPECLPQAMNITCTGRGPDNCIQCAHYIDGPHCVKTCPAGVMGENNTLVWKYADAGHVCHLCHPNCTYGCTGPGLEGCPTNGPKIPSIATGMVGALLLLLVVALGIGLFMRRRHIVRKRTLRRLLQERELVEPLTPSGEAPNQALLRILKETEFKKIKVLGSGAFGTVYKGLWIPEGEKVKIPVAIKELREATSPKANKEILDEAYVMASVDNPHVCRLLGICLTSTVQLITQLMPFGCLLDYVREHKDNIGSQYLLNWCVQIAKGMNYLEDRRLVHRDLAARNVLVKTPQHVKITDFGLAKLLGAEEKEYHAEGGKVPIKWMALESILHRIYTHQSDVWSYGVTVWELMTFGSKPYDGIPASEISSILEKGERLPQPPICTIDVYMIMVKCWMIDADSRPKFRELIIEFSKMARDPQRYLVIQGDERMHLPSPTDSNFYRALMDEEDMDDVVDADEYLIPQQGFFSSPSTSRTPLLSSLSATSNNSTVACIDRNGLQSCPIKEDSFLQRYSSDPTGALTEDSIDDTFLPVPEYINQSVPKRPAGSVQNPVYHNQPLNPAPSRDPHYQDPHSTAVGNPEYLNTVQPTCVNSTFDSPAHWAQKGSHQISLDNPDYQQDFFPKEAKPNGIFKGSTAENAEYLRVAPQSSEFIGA
Sequence of EGFR L861Q (P00533 25-1210 L861Q): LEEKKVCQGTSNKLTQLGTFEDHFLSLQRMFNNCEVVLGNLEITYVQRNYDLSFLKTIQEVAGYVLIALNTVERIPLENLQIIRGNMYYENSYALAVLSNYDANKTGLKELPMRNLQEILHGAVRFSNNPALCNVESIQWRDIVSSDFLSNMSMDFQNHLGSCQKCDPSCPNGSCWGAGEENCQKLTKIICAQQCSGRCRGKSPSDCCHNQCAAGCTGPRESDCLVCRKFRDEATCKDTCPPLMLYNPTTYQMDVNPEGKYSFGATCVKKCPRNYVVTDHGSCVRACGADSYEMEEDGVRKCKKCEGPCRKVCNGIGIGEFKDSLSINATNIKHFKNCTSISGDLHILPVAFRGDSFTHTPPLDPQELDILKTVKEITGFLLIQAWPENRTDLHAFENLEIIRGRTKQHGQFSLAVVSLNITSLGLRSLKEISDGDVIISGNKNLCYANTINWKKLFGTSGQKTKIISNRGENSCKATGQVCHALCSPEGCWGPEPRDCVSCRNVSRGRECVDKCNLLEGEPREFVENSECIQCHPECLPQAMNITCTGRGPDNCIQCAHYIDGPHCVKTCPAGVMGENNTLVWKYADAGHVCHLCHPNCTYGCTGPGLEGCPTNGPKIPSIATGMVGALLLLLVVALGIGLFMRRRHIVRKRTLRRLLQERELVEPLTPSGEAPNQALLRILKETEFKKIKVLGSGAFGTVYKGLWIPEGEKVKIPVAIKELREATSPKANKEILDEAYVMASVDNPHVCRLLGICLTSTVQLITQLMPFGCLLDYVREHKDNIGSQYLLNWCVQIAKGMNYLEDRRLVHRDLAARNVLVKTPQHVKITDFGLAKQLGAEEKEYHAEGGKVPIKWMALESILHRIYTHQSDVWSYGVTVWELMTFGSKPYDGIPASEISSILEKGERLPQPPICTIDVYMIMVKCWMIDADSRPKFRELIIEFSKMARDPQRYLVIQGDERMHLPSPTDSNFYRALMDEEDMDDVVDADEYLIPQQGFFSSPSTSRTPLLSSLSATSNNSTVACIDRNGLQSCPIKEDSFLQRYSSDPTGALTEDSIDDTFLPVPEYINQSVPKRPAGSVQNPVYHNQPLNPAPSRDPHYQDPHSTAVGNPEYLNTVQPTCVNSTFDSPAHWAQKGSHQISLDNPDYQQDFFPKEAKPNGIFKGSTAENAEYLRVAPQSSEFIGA
Sequence of CRAF S338 (Q99N57 whole entry): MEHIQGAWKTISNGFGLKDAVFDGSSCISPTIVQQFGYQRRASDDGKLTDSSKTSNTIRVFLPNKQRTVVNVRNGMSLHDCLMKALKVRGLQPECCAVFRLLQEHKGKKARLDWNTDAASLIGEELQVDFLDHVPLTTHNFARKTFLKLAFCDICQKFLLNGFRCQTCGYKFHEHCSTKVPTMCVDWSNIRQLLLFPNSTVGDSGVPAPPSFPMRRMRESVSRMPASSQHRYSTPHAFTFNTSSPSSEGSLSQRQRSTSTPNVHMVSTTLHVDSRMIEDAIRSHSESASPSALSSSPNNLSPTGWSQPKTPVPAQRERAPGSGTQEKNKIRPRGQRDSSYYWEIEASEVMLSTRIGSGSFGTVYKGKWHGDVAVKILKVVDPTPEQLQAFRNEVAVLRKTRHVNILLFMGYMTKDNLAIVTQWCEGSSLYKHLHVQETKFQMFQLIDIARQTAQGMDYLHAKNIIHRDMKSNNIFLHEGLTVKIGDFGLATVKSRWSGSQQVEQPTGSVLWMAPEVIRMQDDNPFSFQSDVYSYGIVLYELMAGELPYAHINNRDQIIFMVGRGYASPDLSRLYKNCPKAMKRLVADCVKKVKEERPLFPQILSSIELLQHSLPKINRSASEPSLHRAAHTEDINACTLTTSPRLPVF

SMILES: Nc1cc(Oc2ccc(-c3nnc(Nc4cccc(C(F)(F)F)c4)[nH]3)cc2)ncn1 [Compound 3]
- % Inhibition at 10 μM [1]: 17%
- % Inhibition at 10 μM [2]: 79%
- % Inhibition at 10 μM [3]: −2%
- % Inhibition at 10 μM [4]: −3%
- % Inhibition at 10 μM [5]: −1%
- % Inhibition at 10 μM [6]: 31%
- Kd [7]: 0.0014 µM
- Kd [8]: 0.0037 µM
- Kd ([9]; PDGFRα): 0.032 µM
- Kd ([10]; PDGFRβ): 0.04 µM
- EC50 [11]: 15 µM
- B-RAF/C-RAF heterodimer formation [12]: had no effect
- endothelial tube formation and % pericyte-covered tube length [13]: did not affect endothelial tube formation

SMILES: CSc1nc(N)cc(Oc2ccc(-c3nnc(Nc4cccc(C(F)(F)F)c4)[nH]3)cc2)n1 [Compound 6]
- % Inhibition at 10 μM [1]: −1%
- % Inhibition at 10 μM [2]: 23%
- % Inhibition at 10 μM [3]: −3%
- % Inhibition at 10 μM [4]: −10%
- % Inhibition at 10 μM [5]: −4%
- % Inhibition at 10 μM [6]: 16%
- % Control ([7]; 10 uM): 2.8%
- % Control ([8]; 10 uM): 0%
- % Control ([9]; 10 uM, PDGFRA): 0.25%
- % Control ([10]; 10 uM, PDGFRB): 0.5%
- EC50 [14]: 0.1 µM
- EC50 [15]: 0.62 µM
- EC50 [16]: 0.68 µM
- EC50 [17]: 0.66 µM
- EC50 [18]: 0.4 µM
- EC50 [19]: 0.14 µM
- EC50 [11]: 0.59 µM
- B-RAF/C-RAF heterodimer formation [12]: completely inhibited
- endothelial tube formation and % pericyte-covered tube length [13]: dramatic reduction
- phosphorylation on CRAF S338 [20]: does not promote this increase

SMILES: CNC(=O)c1cc(Oc2ccc(NC(=O)Nc3ccc(Cl)c(C(F)(F)F)c3)cc2)ccn1 [sorafenib, reference compound]
- EC50 ([14]; Homo sapiens): 6.1 µM
- EC50 ([15]; Homo sapiens, HT-29): > 20 µM
- EC50 ([16]; Homo sapiens): > 20 µM
- EC50 [17]: 9.43 µM
- EC50 ([18]; Homo sapiens): 17.6 µM
- EC50 ([19]; Homo sapiens): 14.3 µM
- phosphorylation on CRAF S338 [20]: induces an increase
